pEC50, pIC50: −log10 of the molar value. Activity calls are given as the source filed them. No cut-off for these calls is given here.
Assays:
[1] = test system: Jurkat; assay: Cytotoxicity against human Jurkat cells assessed as reduction in cell viability at 50 and 100 uM after 24 hrs by MTT assay; assay type: functional, cell-based
[2] = test system: SK-MEL-147; assay: Cytotoxicity against human SK-MEL-147 cells assessed as reduction in cell viability after 24 hrs by MTT assay; assay type: functional, cell-based; conditions: SK-MEL-147, 24 h
[3] = test system: Jurkat; assay: Cytotoxicity against human Jurkat cells assessed as reduction in cell viability after 24 hrs by MTT assay; assay type: functional, cell-based
[4] = test system: SK-MEL-147; assay: Cytotoxicity against human SK-MEL-147 cells assessed as reduction in cell viability at 50 and 100 uM after 24 hrs by MTT assay; assay type: functional, cell-based
[5] = target: Cysteine proteinase B (Leishmania mexicana, UniProt P36400); assay: Inhibition of Leishmania mexicana rCPB2.8 using Z-FR-AMC as substrate by spectrofluorometric analysis
[6] = Inhibition of Leishmania mexicana rCPB3.0 using Z-FR-AMC as substrate by spectrofluorometric analysis
[7] = Inhibition of Leishmania mexicana rCPB3.0 H84Y mutant using Z-FR-AMC as substrate by spectrofluorometric analysis
[8] = species: Rattus norvegicus; assay: Induction of mitochondrial permeabilization in rat liver mitochondria assessed as mitochondrial transmembrane potential dissipation by rhodamine-123 dye based spectrofluorometer analysis; assay type: functional
[9] = test system: SK-MEL; assay: Cytotoxicity against human SK-MEL-147 cells assessed as reduction in cell viability at EC50 concentration preincubated for 1 hr in presence of BAPTA measured after 24 hrs by MTT assay; assay type: functional, cell-based
[10] = test system: SK-MEL-147; assay: Cytotoxicity against human SK-MEL-147 cells assessed as reduction in cell viability at EC50 concentration preincubated for 1 hr in presence of Boc-D-FMK measured after 24 hrs by MTT assay; assay type: functional, cell-based
[11] = target: Cathepsin B (Homo sapiens, UniProt P07858); assay: Inhibition of cathepsin B (unknown origin) using Z-FR-AMC as substrate by spectrofluorometric analysis
[12] = test system: SK-MEL-147; assay: Cytotoxicity against human SK-MEL-147 cells assessed as reduction in cell viability in presence of BCL2 inhibitor venetoclax; assay type: functional, cell-based
[13] = species: Rattus norvegicus; assay: Induction of mitochondrial permeabilization in rat liver mitochondria assessed as mitochondrial transmembrane potential dissipation in presence of ADP by rhodamine-123 dye based spectrofluorometer analysis; assay type: functional
[14] = species: Rattus norvegicus; assay: Induction of mitochondrial permeabilization in rat liver mitochondria assessed as calcium efflux in presence of CsA by calcium green based spectrofluorometer analysis; assay type: functional
[15] = test system: SK-MEL; assay: Cytotoxicity against human SK-MEL-147 cells assessed as reduction in cell viability at EC50 concentration preincubated for 1 hr in presence of EGTA measured after 24 hrs by MTT assay; assay type: functional, cell-based
[16] = test system: SK-MEL-147; assay: Cytotoxicity against human SK-MEL-147 cells assessed as reduction in cell viability at EC50 concentration preincubated for 1 hr in presence of GSH measured after 24 hrs by MTT assay; assay type: functional, cell-based
[17] = test system: SK-MEL-147; assay: Induction of apoptosis in human SK-MEL-147 cells assessed as increase in reactive oxygen species generation by CM-H2DCFDA staining based flow cytometric analysis; assay type: functional, cell-based
[18] = test system: SK-MEL-147; assay: Induction of apoptosis in human SK-MEL-147 cells assessed as mitochondrial membrane potential dissipation after 24 hrs by TMRM staining based fluorescence microscopic method; assay type: functional, cell-based
[19] = species: Rattus norvegicus; assay: Induction of mitochondrial permeabilization in rat liver mitochondria assessed as calcium efflux by calcium green based spectrofluorometer analysis; assay type: functional
[20] = species: Rattus norvegicus; assay: Induction of mitochondrial permeabilization in rat liver mitochondria assessed as mitochondrial transmembrane potential dissipation in presence of DTT by rhodamine-123 dye based spectrofluorometer analysis; assay type: functional
[21] = target: Procathepsin L (Homo sapiens, UniProt P07711); assay: Inhibition of cathepsin L (unknown origin) using Z-FR-AMC as substrate by spectrofluorometric analysis
[22] = test system: SK-MEL-147; assay: Induction of apoptosis in human SK-MEL-147 cells assessed mitochondrial permeabilization after 24 hrs by mitotracker green staining based microscopic analysis; assay type: functional, cell-based
[23] = test system: SK-MEL-147; assay: Cytotoxicity against human SK-MEL-147 cells assessed as reduction in cell viability at EC50 concentration preincubated for 1 hr in presence of E-64 measured after 24 hrs by MTT assay; assay type: functional, cell-based
[24] = test system: SK-MEL-147; assay: Induction of apoptosis in human SK-MEL-147 cells assessed as early apoptotic cells at 20 uM after 24 hrs by Annexin V-FITC/propidium iodide staining based flow cytometry; assay type: functional, cell-based
[25] = test system: SK-MEL-147; assay: Induction of apoptosis in human SK-MEL-147 cells assessed as increase in BAX expression at 20 uM after 24 hrs by western blotting analysis; assay type: functional, cell-based
[26] = test system: SK-MEL-147; assay: Cytotoxicity against human SK-MEL-147 cells assessed as reduction in cell viability at EC50 concentration preincubated for 1 hr in presence of DTT measured after 24 hrs by MTT assay; assay type: functional, cell-based
[27] = species: Rattus norvegicus; assay: Induction of mitochondrial permeabilization in rat liver mitochondria assessed as mitochondrial transmembrane potential dissipation in presence of CsA by rhodamine-123 dye based spectrofluorometer analysis; assay type: functional
[28] = species: Rattus norvegicus; assay: Induction of mitochondrial permeabilization in rat liver mitochondria assessed as calcium efflux in presence of ADP by calcium green based spectrofluorometer analysis; assay type: functional
[29] = test system: SK-MEL-147; assay: Induction of apoptosis in human SK-MEL-147 cells assessed as necrotic cells at 20 uM after 24 hrs by Annexin V-FITC/propidium iodide staining based flow cytometry; assay type: functional, cell-based
[30] = test system: SK-MEL-147; assay: Induction of apoptosis in human SK-MEL-147 cells assessed as effect on BCL-2 protein expression at 20 uM after 24 hrs by western blotting analysis; assay type: functional, cell-based
[31] = species: Rattus norvegicus; assay: Induction of mitochondrial permeabilization in rat liver mitochondria assessed as calcium efflux in presence of DTT by calcium green based spectrofluorometer analysis; assay type: functional
[32] = test system: SK-MEL-147; assay: Cytotoxicity against human SK-MEL-147 cells assessed as reduction in cell viability at EC50 concentration preincubated for 1 hr in presence of N-acetyl cysteine measured after 24 hrs by MTT assay; assay type: functional, cell-based
[33] = test system: SK-MEL-147; assay: Induction of apoptosis in human SK-MEL-147 cells assessed as late apoptotic cells at 20 uM after 24 hrs by Annexin V-FITC/propidium iodide staining based flow cytometry; assay type: functional, cell-based

Sequence of Procathepsin L (P07711 whole entry): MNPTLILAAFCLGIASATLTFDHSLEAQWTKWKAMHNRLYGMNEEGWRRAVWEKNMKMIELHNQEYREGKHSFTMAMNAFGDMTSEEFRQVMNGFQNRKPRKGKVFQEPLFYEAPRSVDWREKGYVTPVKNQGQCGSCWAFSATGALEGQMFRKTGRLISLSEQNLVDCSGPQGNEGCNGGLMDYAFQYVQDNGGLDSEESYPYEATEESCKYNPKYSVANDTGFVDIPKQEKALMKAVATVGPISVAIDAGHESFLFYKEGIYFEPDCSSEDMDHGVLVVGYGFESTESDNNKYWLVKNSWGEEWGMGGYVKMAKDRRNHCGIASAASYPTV
Sequence of Cysteine proteinase B (P36400 whole entry): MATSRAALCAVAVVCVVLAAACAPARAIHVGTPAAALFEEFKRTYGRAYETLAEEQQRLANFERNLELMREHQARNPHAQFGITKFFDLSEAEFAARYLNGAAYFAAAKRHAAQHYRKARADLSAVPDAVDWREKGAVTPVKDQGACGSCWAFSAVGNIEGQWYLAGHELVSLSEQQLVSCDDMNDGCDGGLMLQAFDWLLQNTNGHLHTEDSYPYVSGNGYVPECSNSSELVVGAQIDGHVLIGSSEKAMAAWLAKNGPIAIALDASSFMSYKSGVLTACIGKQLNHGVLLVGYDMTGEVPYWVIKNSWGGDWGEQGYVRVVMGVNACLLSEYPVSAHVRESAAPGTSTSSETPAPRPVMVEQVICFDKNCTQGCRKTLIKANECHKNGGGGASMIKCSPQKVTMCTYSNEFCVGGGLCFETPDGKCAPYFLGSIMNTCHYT

Question: Which Activity [1] does the source give for `CCOC(=O)c1cc([Se]c2ccccc2)c2cc(Cl)ccc2n1` here?
Answer: Active

Question: And the pEC50 [2]?
Answer: 4.33

Question: What about the pEC50 [3] of the same compound?
Answer: 4.28

Question: And the Activity [4]?
Answer: Active

Question: Which Activity [1] does the source give for `CCOC(=O)c1cc([Se]Cc2ccccc2)c2cc(Br)ccc2n1` here?
Answer: Active

Question: And the pEC50 [2]?
Answer: 4.51

Question: What about the pEC50 [3] of the same compound?
Answer: 4.27

Question: What about the Activity [4] of the same compound?
Answer: Active

Question: What does the source list for `CCOC(=O)c1cc(C#Cc2ccccc2[N+](=O)[O-])c2cc(OC)ccc2n1`?
Answer: Activity [1]: Active; pEC50 [2]: < 3.82; pEC50 [3]: 4.26; Activity [4]: Active

Question: With `COc1ccc2nc(-c3c(C)cccc3C)cc([Se]c3ccccc3)c2c1` as the compound, how does the pIC50 [5] read?
Answer: 4.89

Question: What about the Activity [1] of the same compound?
Answer: Active

Question: And the pEC50 [2]?
Answer: 4.43

Question: And the pIC50 [6]?
Answer: 5.13

Question: What about the pEC50 [3] of the same compound?
Answer: 4.57

Question: And the Activity [4]?
Answer: Active

Question: And the pIC50 [7]?
Answer: 4.69

Question: What does the source list for `CCOC(=O)c1cc([Se]c2ccc3ccccc3c2)c2cc(OC)ccc2n1`?
Answer: Activity [1]: Active; pEC50 [2]: 4.49; pEC50 [3]: 4.29; Activity [4]: Active

Question: What does the source list for `CCOC(=O)c1cc([Se]c2ccc3cc(OC)ccc3c2)c2cc(Cl)ccc2n1`?
Answer: Activity [1]: Active; pEC50 [2]: 4.79; pIC50 [6]: 5.20; pEC50 [3]: 4.53; Activity [4]: Active; pIC50 [7]: 5.14

Question: For `CCOC(=O)c1cc([Se]c2ccccc2)c2cc(OC)ccc2n1`, which Activity [1] is on record?
Answer: Active

Question: What about the pEC50 [2] of the same compound?
Answer: 4.48

Question: What about the pEC50 [3] of the same compound?
Answer: 3.99

Question: What about the Activity [4] of the same compound?
Answer: Active

Question: With `CCCCC#Cc1cc(C(=O)OCC)nc2ccc(OC)cc12` as the compound, how does the Activity [8] read?
Answer: Active

Question: What about the Activity [9] of the same compound?
Answer: Active

Question: And the Activity [10]?
Answer: inactive

Question: And the Activity [1]?
Answer: Active

Question: What about the pEC50 [2] of the same compound?
Answer: 5.14

Question: What about the pIC50 ([11]; read-out: IC50) of the same compound?
Answer: 5.16

Question: What about the Activity [12] of the same compound?
Answer: Active

Question: What about the Activity [13] of the same compound?
Answer: Active

Question: And the Activity [14]?
Answer: Active

Question: And the Activity [15]?
Answer: Active

Question: And the Activity [16]?
Answer: Active

Question: And the Activity [17]?
Answer: Active

Question: What about the Activity [18] of the same compound?
Answer: Active

Question: And the Activity [19]?
Answer: Active

Question: And the Activity [20]?
Answer: Active

Question: What about the pIC50 ([21]; read-out: IC50) of the same compound?
Answer: 5.43

Question: What about the Activity [22] of the same compound?
Answer: Active

Question: What about the Activity [23] of the same compound?
Answer: inactive

Question: And the Activity [24]?
Answer: Active

Question: What about the Activity [25] of the same compound?
Answer: Active

Question: And the pEC50 [3]?
Answer: 4.80

Question: And the Activity [26]?
Answer: Active

Question: And the Activity [27]?
Answer: Active

Question: And the Activity [28]?
Answer: inactive

Question: And the Activity [29]?
Answer: Active

Question: And the Activity [30]?
Answer: inactive

Question: What about the Activity [31] of the same compound?
Answer: Active

Question: And the Activity [4]?
Answer: Active

Question: What about the Activity [32] of the same compound?
Answer: Active

Question: What about the Activity [33] of the same compound?
Answer: Active

Question: Which Activity [1] does the source give for `CCOC(=O)c1cc([Se]c2ccc(OC)cc2)c2cc(OC)ccc2n1` here?
Answer: Active

Question: What about the pEC50 [2] of the same compound?
Answer: 3.82 to 4.27

Question: What about the pEC50 [3] of the same compound?
Answer: 4.01 to 4.08

Question: What about the Activity [4] of the same compound?
Answer: Active

Question: With `CCOC(=O)c1cc([Se]Cc2ccccc2)c2cc(OC)ccc2n1` as the compound, how does the Activity [1] read?
Answer: Active

Question: What about the pEC50 [2] of the same compound?
Answer: 4.39

Question: And the pEC50 [3]?
Answer: 4.68

Question: What about the Activity [4] of the same compound?
Answer: Active

Question: Which Activity [8] does the source give for `CCOC(=O)c1cc([Se]c2ccccc2)c2cc(C)ccc2n1` here?
Answer: Active

Question: What about the Activity [9] of the same compound?
Answer: inactive

Question: What about the Activity [10] of the same compound?
Answer: Active

Question: What about the Activity [1] of the same compound?
Answer: Active

Question: What about the pEC50 [2] of the same compound?
Answer: 4.92

Question: And the IC50 [11]?
Answer: Not Active

Question: And the Activity [12]?
Answer: Active

Question: What about the Activity [13] of the same compound?
Answer: inactive

Question: What about the Activity [14] of the same compound?
Answer: inactive

Question: And the Activity [15]?
Answer: inactive

Question: And the Activity [16]?
Answer: inactive

Question: And the Activity [17]?
Answer: Active

Question: What about the Activity [18] of the same compound?
Answer: Active

Question: What about the Activity [19] of the same compound?
Answer: Active

Question: And the Activity [20]?
Answer: inactive

Question: And the IC50 [21]?
Answer: Not Active

Question: And the Activity [22]?
Answer: Active

Question: What about the Activity [23] of the same compound?
Answer: Active

Question: What about the Activity [24] of the same compound?
Answer: Active

Question: And the Activity [25]?
Answer: Active

Question: What about the pEC50 [3] of the same compound?
Answer: 4.82

Question: And the Activity [26]?
Answer: inactive

Question: And the Activity [27]?
Answer: inactive

Question: What about the Activity [28] of the same compound?
Answer: inactive

Question: What about the Activity [29] of the same compound?
Answer: Active

Question: What about the Activity [30] of the same compound?
Answer: inactive

Question: What about the Activity [31] of the same compound?
Answer: inactive

Question: What about the Activity [4] of the same compound?
Answer: Active

Question: And the Activity [32]?
Answer: inactive

Question: What about the Activity [33] of the same compound?
Answer: Active

Question: Which Activity [1] does the source give for `CCOC(=O)c1cc([Se]Cc2ccccc2)c2cc(Cl)ccc2n1` here?
Answer: Active

Question: What about the pEC50 [2] of the same compound?
Answer: 4.07

Question: And the pEC50 [3]?
Answer: 4.05

Question: And the Activity [4]?
Answer: Active

Source: ChEMBL document CHEMBL4622851, “Cytotoxicity of 4-substituted quinoline derivatives: Anticancer and antileishmanial potential” (Bioorg Med Chem, 2020)
